Measurements reported in a compilation of properties of binary mixtures (doi:10.1016/j.molliq.2014.09.006).

Assay: xn = mol fraction of the nth substance listed
Conditions: 101 kPa

CCCC[n+]1ccn(C)c1.O=[N+]([O-])[O-] + CCO
viscosity [mPa·s]
Conditions | x2 = 0 | x2 = 0.2 | x2 = 0.4 | x2 = 0.6
283.15 K | 400 | 121 | 46.4 | 18.9
288.15 K | 290 | 93 | 37.8 | 15.9
293.15 K | 210 | 73 | – | 13.5
298.15 K | – | – | 26.1 | 11.6
303.15 K | 121 | 47.1 | 22 | –
308.15 K | 94 | – | 18.8 | 8.84
313.15 K | 74 | – | 16.3 | 7.81
318.15 K | 59.4 | – | – | 6.95
323.15 K | 48.2 | 22.8 | 12.4 | 6.23
328.15 K | 39.6 | 19.6 | 11 | 5.62
333.15 K | 32.9 | 16.9 | 9.8 | 5.1
